Where two headings read alike, the source gives them in different places.
Key:
[1] = target: T1, HIV-1 WT RT (Human immunodeficiency virus type 1 group M subtype B, UniProt P03366); assay: biochemical; conditions: for IC50: read-out: IC50; for inhibition at 1 µM: WT HIV-1 RT, 1 µM drug
T1 construct: purified RT protein (0.015 mg/mL) was incubated in a 100 µL reaction mixture

[2] = system: WT virus (NL4-3); assay: microbe, parasite or virus in culture; assay type: cell-based, HIV-1; conditions: for EC50: Human immunodeficiency virus 1, NL43, CEM-SS, read-out: EC50
Procedure: Evaluation of these compounds for the inhibition of HIV-1 was determined as the fifty percent cell culture inhibitory concentration (CIC50) in CEMSS cell culture with WT virus (NL4-3).
(§1) In this Example, the antiviral and cellular toxicity of NNRTIs was investigated, using the cytopathic cell killing assay described by Yang (Yang et al., "Characteristics of a Group of Non-nucleoside Reverse Transcriptase Inhibitors with Structural Diversity and Potent Anti-Human Immunodeficiency Virus Activity," Leukemia 9:S75-S85 [1995]). Briefly, in this method cells (e.g., the CEM-SS cell line, available from the NIAID AIDS Research and Reference Program [ARRRP]) were seeded at a density of 5 x 10^3 cells/well, into the wells of a 96-well microtiter plate. The cells were then infected with HIV virus (either mutant or WT), at a multiplicity of infection (MOI) previously determined to provide complete cell killing by 6 days of culture post-infection (e.g., MOI of 0.01-0.05). Each of the HIV isolates was pre-titered to induce equivalent levels of infection based on cell killing or virus production, prior to their use in these assays. A range of test compound concentrations was added to the wells in triplicate (e.g., serial half-log dilutions) to evaluate inhibition of HIV infection. Controls for each assay included drug controls (drug colorimetric control wells), drug cytotoxicity control wells (cells with drug), virus control wells (cells with virus), and cell viability controls (cells only). Positive control drugs (e.g., AZT and ddC) were also run in parallel.
(§2) After six days of incubation at 37°C, cell viability was determined spectrophotometrically at 450 nm for each well, using the metabolic reduction of XTT to a soluble colored formazan. (See, Gartner and Popovic, "Virus Isolation and Production, in Aldovini and Walker (eds.), Techniques in HIV Research, Stockton Press, NY, pp. […] [1991]; and Nara and Fischinger, "Quantitative Infectivity Assay for HIV-1 and HIV-2," Nature 332:469-470 [1988]).
(§3) The in vitro therapeutic index (TI50) was defined as the fold-difference between the EC50 and IC50. The results for the various compounds are included in Figures 8 and 19.

[3] = system: NL4-3 (WT); assay: Cytopathic cell killing assay, cross-resistance profile, infected MT-4 cells; assay type: cell-based, HIV-1
From the text: (§4) The various HIV isolates tested in the Figures are those corresponding to wild-type virus (NL4-3) and the other strains listed by their RT mutations. The three 4xAZT isolates included in the Figures represent AZT drug-resistant variants. For example, the 4xAZT/L100I isolate has five mutations: four mutations confer increased resistance to AZT, and the other mutation is located within the NNRTI binding pocket. TZB and nevir. (nevirapine) are two well-known NNRTIs, included in this experiment for comparison purposes. […]
as §1, §2, §3

[4] = system: HIV-1 isolate 4xAZT/Y181C; assay: as above; assay type: cell-based
From the text: as §4, §1, §2, §3

[5] = system: HIV-1 isolate 4xAZT; assay: as above; assay type: cell-based
From the text: as §4, §1, §2, §3

[6] = system: HIV-1 variant A98G; assay: as above; assay type: cell-based
From the text: as §4, §1, §2, §3

[7] = system: HIV-1 variant K101E; assay: as above; assay type: cell-based
From the text: as §4, §1, §2, §3

[8] = system: HIV-1 variant K103N; assay: as above; assay type: cell-based; conditions: isolate K103N
From the text: as §4, §1, §2, §3

[9] = system: HIV-1 variant L100I; assay: as above; assay type: cell-based
From the text: as §4, §1, §2, §3

[10] = system: HIV-1 variant L74V; assay: as above; assay type: cell-based
From the text: as §4, §1, §2, §3

[11] = system: HIV-1 variant V106A; assay: as above; assay type: cell-based
From the text: as §4, §1, §2, §3

[12] = system: HIV-1 variant V108I; assay: as above; assay type: cell-based
From the text: as §4, §1, §2, §3

[13] = system: HIV-1 variant V179D; assay: as above; assay type: cell-based; conditions: isolate V179D
From the text: as §4, §1, §2, §3

[14] = system: HIV-1 variant Y181C; assay: as above; assay type: cell-based; conditions: isolate Y181C
From the text: as §4, §1, §2, §3

[15] = system: HIV-1 variant Y188C; assay: as above; assay type: cell-based
From the text: as §4, §1, §2, §3

[16] = system: HIV-1 isolate 4xAZT/L100I; assay: as above; assay type: cell-based
Procedure: The various HIV isolates tested in the Figures are those corresponding to wild-type virus (NL4-3) and the other strains listed by their RT mutations. The three 4xAZT isolates included in the Figures represent AZT drug-resistant variants. […]
as §1, with “Briefly,” for “In this Example, the antiviral and cellular toxicity of NNRTIs was investigated, using the cytopathic cell killing assay described by Yang (Yang et al., "Characteristics of a Group of Non-nucleoside Reverse Transcriptase Inhibitors with Structural Diversity and Potent Anti-Human Immunodeficiency Virus Activity," Leukemia 9:S75-S85 [1995]). Briefly,”
as §2
The in vitro therapeutic index (TI50) was defined as the fold-difference between the EC50 and IC50.

[17] = Table 11, CEMSS/NL4-3, NRVC = reduction in viral CPE not seen (footnote)
[18] = Human immunodeficiency virus 1, MT4, Table 4
[19] = Human immunodeficiency virus 1, MT4, Table 9
[20] = Table 7, concentration reducing cell killing or virus production by 50%, HIV-1 WT
[21] = Human immunodeficiency virus 1, NL43, MT4, Table 8, isolate N1.43
[22] = Human immunodeficiency virus 1, MT4, Table 8, isolate 4XAZT /Y181C
[23] = Human immunodeficiency virus 1, MT4, Table 8, isolate 4XAZT
[24] = Human immunodeficiency virus 1, MT4, Table 8, isolate A9SG
[25] = Human immunodeficiency virus 1, MT4, Table 8, isolate K101E
[26] = Human immunodeficiency virus 1, MT4, Table 8
[27] = Human immunodeficiency virus 1, MT4, Table 10 (values in µM)
[28] = Human immunodeficiency virus 1, MT4, Table 8, isolate 1.1001
[29] = Human immunodeficiency virus 1, MT4, Table 8, isolate 1.74V
[30] = Human immunodeficiency virus 1, MT4, Table 8, isolate V 106A
[31] = Human immunodeficiency virus 1, MT4, Table 8, isolate V1081
[32] = Human immunodeficiency virus 1, MT4, Table 8, isolate Y 188C
[33] = Human immunodeficiency virus 1, MT4, Table 8, isolate 4XA7T L 1001

## Fc1cccc(F)c1Cn1c(-c2c(F)cccc2F)nc2ccccc21 [compound 26, 1-(2,6-difluorobenzyl)-2-(2,6-difluorophenyl)benzimidazole]
[1]; Table 1, WT RT, 10 µM drug concentration, read-out: %inhibn (10µM)
  inhibition at 10 µM: 93%
[1]; Table 1, quantity of drug required to reduce WT RT enzyme activity by 50%
  IC50: 0.11 µM
[1]; Table 2, WT RT, 10 µM drug concentration
  %inhibn (10µM): 93%
[1]; Table 11, WT RT
  IC50: 0.11 µM
[2]; [17]
  EC50: 1.7 µM
[3]; Human immunodeficiency virus 1, NL43, MT4, Table 4, isolate NL4-3 (WT)
  EC50: 1.85 µM
[3]; Human immunodeficiency virus 1, NL43, MT4, Table 9, isolate NL4.3
  EC50: 2.2 µM
[4]; Human immunodeficiency virus 1, MT4, Table 4, isolate 4xAZT/Y181C
  EC50: > 20 µM
[4]; Human immunodeficiency virus 1, MT4, Table 9, isolate 4XAZT /Y181C
  EC50: 20 µM
[5]; Human immunodeficiency virus 1, MT4, Table 4, isolate 4xAZT
  EC50: 0.27 µM
[5]; Human immunodeficiency virus 1, MT4, Table 9, isolate 4XAZT
  EC50: 0.3 µM
[6]; Human immunodeficiency virus 1, MT4, Table 4, isolate A98G
  EC50: 4.75 µM
[6]; Human immunodeficiency virus 1, MT4, Table 9, isolate A98G
  EC50: 4.7 µM
[7]; Human immunodeficiency virus 1, MT4, Table 4, isolate K101E
  EC50: > 20 µM
[7]; Human immunodeficiency virus 1, MT4, Table 9, isolate KIOIE
  EC50: > 20 µM
[8]; [18]
  EC50: 12.9 µM
[8]; [19]
  EC50: > 10 µM
[9]; Human immunodeficiency virus 1, MT4, Table 4, isolate L1001
  EC50: 1.36 µM
[9]; Human immunodeficiency virus 1, MT4, Table 9, isolate L1001
  EC50: 1.3 µM
[10]; Human immunodeficiency virus 1, MT4, Table 4, isolate L74V
  EC50: 0.46 µM
[10]; Human immunodeficiency virus 1, MT4, Table 9, isolate 1.74 V
  EC50: 1.9 µM
[11]; Human immunodeficiency virus 1, MT4, Table 4, isolate V106A
  EC50: > 20 µM
[11]; Human immunodeficiency virus 1, MT4, Table 9, isolate V106A
  EC50: > 20 µM
[12]; Human immunodeficiency virus 1, MT4, Table 4, isolate V108I
  EC50: 10.4 µM
[12]; Human immunodeficiency virus 1, MT4, Table 9, isolate V1081
  EC50: > 10 µM
[13]; [18]
  EC50: 2.3 µM
[13]; [19]
  EC50: 2.9 µM
[14]; [18]
  EC50: 15.2 µM
[14]; [19]
  EC50: 14 µM
[15]; Human immunodeficiency virus 1, MT4, Table 4, isolate Y188C
  EC50: 11.7 µM
[15]; Human immunodeficiency virus 1, MT4, Table 9, isolate Y188C
  EC50: > 10 µM
[16]; Human immunodeficiency virus 1, MT4, Table 4, isolate 4xAZT/L.1001
  EC50: 0.84 µM
[16]; Human immunodeficiency virus 1, MT4, Table 9, isolate 4XAZT /L1001
  EC50: 0.9 µM

## Fc1cccc(F)c1Cn1c(-c2c(F)cccc2F)nc2c(Cl)cccc21 [compound 55, 4-chloro-1-(2,6-difluorobenzyl)-2-(2,6-difluorophenyl)benzimidazole]
[1]; Table 6, average of two experiments done in triplicates, read-out: %Inhibn (1µM)
  inhibition at 1 µM: 75%
[1]; Table 7, HIV-1 WT RT
  IC50: 2.63 µM
[1]; Table 7, read-out: %inhibn (1µM)
  inhibition at 1 µM: 75%
[1]; Table 11, WT RT
  IC50: 2.63 µM
[2]; [20]
  EC50: 0.44 µM
[2]; [17]
  EC50: 0.44 µM
[3]; [21]
  EC50: 0.1 µM
[3]; Human immunodeficiency virus 1, NL43, MT4, Table 10 (values in µM), isolate NL4-3 (WT)
  EC50: 0.5 µM
[4]; [22]
  EC50: > 20 µM
[5]; [23]
  EC50: 0.2 µM
[6]; [24]
  EC50: 5 µM
[7]; [25]
  EC50: > 20 µM
[7]; Human immunodeficiency virus 1, MT4, Table 10 (values in µM), isolate K101E
  EC50: > 20 µM
[8]; [26]
  EC50: > 20 µM
[8]; [27]
  EC50: 10.2 µM
[9]; [28]
  EC50: 0.2 µM
[9]; Human immunodeficiency virus 1, MT4, Table 10 (values in µM), isolate L1001
  EC50: 0.3 µM
[10]; [29]
  EC50: 0.5 µM
[11]; [30]
  EC50: > 10 µM
[12]; [31]
  EC50: 3.6 µM
[12]; Human immunodeficiency virus 1, MT4, Table 10 (values in µM), isolate V108l
  EC50: 3.2 µM
[13]; [26]
  EC50: 0.8 µM
[14]; [27]
  EC50: 8.4 µM
[15]; [32]
  EC50: 5.4 µM
[15]; Human immunodeficiency virus 1, MT4, Table 10 (values in µM), isolate Y188C
  EC50: 3.4 µM
[16]; [33]
  EC50: 0.2 µM

## CC(=O)N(C)c1cccc2c1nc(-c1c(F)cccc1F)n2Cc1c(F)cccc1F [compound 57, 1-(2,6-Difluorobenzyl)-2-(2,6-difluorophenyl)-4-(N-methylacetamido)-benzimidazole]
[2]; [20]
  EC50: 0.02 µM
[2]; [17]
  EC50: 0.02 µM
[2]; cytopathic cell killing assay, HIV-1 WT
  EC50: 0.02 µM
[2]; cytopathic cell killing assay
  -fold more potent than the 4-methyl or 4-amino compounds: 20 fold
[3]; [21]
  EC50: 0.04 µM
[4]; [22]
  EC50: > 10 µM
[5]; [23]
  EC50: > 10 µM
[6]; [24]
  EC50: 0.1 µM
[7]; [25]
  EC50: 0.6 µM
[8]; [26]
  EC50: > 10 µM
[9]; [28]
  EC50: 1.7 µM
[10]; [29]
  EC50: 0.07 µM
[11]; [30]
  EC50: 0.05 µM
[12]; [31]
  EC50: > 10 µM
[13]; [26]
  EC50: 0.4 µM
[15]; [32]
  EC50: 0.5 µM
[16]; [33]
  EC50: 1.8 µM

## CNc1cccc2c1nc(-c1c(F)cccc1F)n2Cc1c(F)cccc1F [compound 58, 1-(2,6-Difluorobenzyl)-2-(2,6-difluorophenyl)-4-(N-methylamino)-benzimidazole]
[2]; [20]
  EC50: 1.7 µM
[2]; [17]
  EC50: 1.7 µM
[3]; [21]
  EC50: 2.6 µM
[4]; [22]
  EC50: > 20 µM
[5]; [23]
  EC50: > 10 µM
[6]; [24]
  EC50: 8.5 µM
[7]; [25]
  EC50: > 20 µM
[8]; [26]
  EC50: > 20 µM
[9]; [28]
  EC50: 0.4 µM
[10]; [29]
  EC50: 3.9 µM
[11]; [30]
  EC50: > 20 µM
[12]; [31]
  EC50: > 20 µM
[13]; [26]
  EC50: > 10 µM
[15]; [32]
  EC50: > 20 µM
[16]; [33]
  EC50: 1 µM
